Data as given in patent US7235256B2, “Method of preventing parturient hypocalcemia in animals and compositions used therein” (RJ Innovation, priority 1999, dated 2007).

Legend:
non-lactating (dry) cows = assay: EDTA-infusion test for resistance to hypocalcemia; assay type: in vivo, cow; conditions: 8 EDTA-tests at 10 days intervals, normal = ionised blood calcium above 1 mmol/l
Excerpt: To investigate the induction of hypocalcemia by intravenous infusion of EDTA in cows, 6 non-lactating (dry) cows were used in this study. Three of these cows were untreated (cow Nos. 168, 169 and 170) and the other three cows (cow Nos. 172, 175 and 176) had been subjected to a pre-treatment consisting of daily doses of anionic salts (Wang and Beede, 1992). This pre-treatment is known to be effective in preventing milk fever. The latter cows were rumen fistulated to facilitate precise daily dosages of the anionic salts.
All cows were tested for resistance to hypocalcemia by the EDTA-infusion technique. A total of 8 EDTA-tests were performed per cow according to the standardised method of Mellau et al. (1998), at 10 days intervals. With the standardised test, infusion of EDTA was performed until the cow went down involuntarily, due to muscle weakness caused by the induced hypocalcemia. The time taken from this point and until the cow regained normal blood calcium concentration, which is defined as an ionised blood calcium value above 1 mmol/l, was recorded. This time is considered to represent the cows' calcium mobilisation rate and therefore also the cows' ability to resist hypocalcemia. The infusion periods varied between individual cows, but were typically in the range of 2–4 hours. […]

dairy cows = assay: Repeated oral zinc oxide administration, serum calcium response; assay type: in vivo, cow; conditions: lactating cows
Method: Six dairy cows were used in this study: Two lactating cows and two dry cows were treated with zinc oxide by mouth at 120 mg/kg body weight, whereas two lactating cows served as untreated controls. Four doses of zinc oxide were given to the treated cows at one-week intervals. Venous blood samples were taken and serum stored at −37° C. for later total calcium determinations. For this purpose blood samples were taken daily from all six cows one hour after morning feeding. Extra samples were taken 5, 11, 23 and 35 hours after zinc oxide administration.

[1] = zinc oxide by mouth 120 mg/kg body weight

| SMILES | time to regain normal blood calcium concentration (recovery time) after EDTA infusion (non-lactating (dry) cows) | change of calcium balance response with number of doses (dairy cows; four doses at one-week intervals) | minimum serum calcium concentration (dairy cows; [1]) [mmol/L] | time of minimum serum calcium after administration (dairy cows; [1]) |
| --- | --- | --- | --- | --- |
| O=C(O)CN(CCN(CC(=O)O)CC(=O)O)CC(=O)O [EDTA, ethylenediaminetetraacetic acid] | greatly improved | – | – | – |
| [O]=[Zn] [zinc oxide] | – | less and less affected | 1.4 to 1.6 | about 24 hours |
